The numbers were not newly measured in patent publication US7799760B2 (Centro de Ingenieria Genetica y Biotecnologia, priority 2001, dated 2010), which cites them from elsewhere.

The series concerns chronic neuropathic diabetic ulcers.

For Becaplermin, where the note is “in the third month”, the rate of recurrence entry was “about 30%”. In addition, the efficacy (multicenter, controlled, randomized clinical trial in the USA, neuropathic foot ulcers with normal arterial blood supply, topical gel) is 50%.
